Results reported in patent US20260231994A1, “TASTE-ENHANCING COMPOSITION, METHOD FOR PRODUCING SAME, FOOD PRODUCT, AND METHOD FOR ENHANCING TASTE OF FOOD PRODUCT” (HOUSE FOODS GROUP INC., priority 2023, published 2026).

Tests used:
Assay type in all cases: in vivo
[1] = Experiment 6 sensory evaluation of cyclic dipeptides, “top sharp saltiness”
Protocol: (§1) An aqueous solution in which the concentration of each of the cyclic dipeptides shown in the table described below is set to be the same as its concentration in the heat-treated coriander prepared in 1.1. described above, as estimated from the ratio of the peak area of the cyclic dipeptides to the peak area of the internal standard (47 μg/g of L-lysine-^13C6 monohydrochloride) (hereinafter referred to as “heat-treated coriander equivalent aqueous solution”) was prepared. An aqueous solution in which the concentration of each of the cyclic dipeptides is set to be the same as its concentration in the heat-treated paprika of Example 203 prepared in 2.1 described above (hereinafter referred to as “heat-treated paprika equivalent aqueous solution”) was also prepared. Cyclic dipeptides prepared by the applicant were used in this experiment. As a cyclic dipeptide comprising Leu/Ile, a mixture comprising equal parts of cyclic dipeptide comprising Leu and cyclic dipeptide comprising Ile was used.
(§2) Common and reduced-sodium curry rouxes were prepared according to the procedures described in (1) and (2) of 1.3. described above.
(§3) Two dispersions of 44 g of the aforesaid reduced-sodium curry roux dispersed in 300 g of hot water were prepared. To one of them was added the heat-treated coriander equivalent solution or heat-treated paprika equivalent aqueous solution of the individual cyclic dipeptides shown in the table described below so as to be in the final concentration of 0.5% (w/w) or 1.0% (w/w), respectively.
(§4) Forty-four grams of the aforesaid common curry roux was dispersed in 300 g of hot water.
(§5) The dispersion of reduced-sodium curry roux dispersed in hot water and the dispersion of common curry roux dispersed in hot water were used as comparative controls, and the strength of the flavor was evaluated by three evaluators on the basis of the following evaluation criteria from the viewpoint of “top sharp saltiness”, “middle fullness (enhanced thickness) and “boosting of last flavor (aftertaste).”
(§6) The average of the evaluated scores was defined as “F” when it was 1.0 or lower, “C” when it was 1.1 or higher and 1.9 or lower, “B” when it was 2.0 or higher and 2.5 or lower, “A” when it was 2.6 or higher and 2.9 or lower, and “AA” when it was 3.0 or higher.
(§7) In the table described below, “ID” refers to the compound ID described above. The items of “coriander 0.5%” and “coriander 1.0%” refer to the addition of the aforesaid heat-treated coriander equivalent aqueous solution of cyclic dipeptide so that the final concentrations may be 0.5% (w/w) and 1.0% (w/w), respectively. The items of “paprika 0.5%” and “paprika 1.0%” refer to the addition of the aforesaid heat-treated paprika equivalent aqueous solution of cyclic dipeptide so that the final concentration may be 0.5% (w/w) and 1.0% (w/w), respectively.

[2] = Experiment 6 sensory evaluation of cyclic dipeptides, “boosting of last flavor (aftertaste)”
Protocol: as §1, §2, §3, §4, §5, §6, §7

[3] = Experiment 6 sensory evaluation of cyclic dipeptides, “middle fullness (enhanced thickness)”
Protocol: as §1, §2, §3, §4, §5, §6, §7

[4] = Additive amount coriander 0.5% (heat-treated coriander equivalent aqueous solution, final 0.5% (w/w)), reduced-sodium curry roux
[5] = Additive amount coriander 0.5%, reduced-sodium curry roux
[6] = heat-treated coriander equivalent aqueous solution of cyclic dipeptide, final 1.0% (w/w) in reduced-sodium curry roux dispersion
[7] = heat-treated coriander equivalent aqueous solution of cyclic dipeptide, final 1.0% (w/w) in reduced-sodium curry roux dispersion, 3 evaluators
[8] = Additive amount paprika 0.5% (heat-treated paprika equivalent aqueous solution, final 0.5% (w/w)), reduced-sodium curry roux
[9] = Additive amount paprika 0.5%, reduced-sodium curry roux
[10] = heat-treated paprika equivalent aqueous solution of cyclic dipeptide, final 1.0% (w/w) in reduced-sodium curry roux dispersion
[11] = heat-treated paprika equivalent aqueous solution of cyclic dipeptide, final 1.0% (w/w) in reduced-sodium curry roux dispersion, 3 evaluators

Row | Substance | Top sharp saltiness Average [1, 4] | Top sharp saltiness Evaluation [1, 5] | Top sharp saltiness Evaluation [1, 6] | Top sharp saltiness Average [1, 7] | Bosting of last flavor Average [2, 5] | Bosting of last flavor Evaluation [2, 5] | Bosting of last flavor Evaluation [2, 6] | Bosting of last flavor Average [2, 7] | Middle fullness Average [3, 5] | Middle fullness Evaluation [3, 5] | Middle fullness Evaluation [3, 6] | Middle fullness Average [3, 7] | Top sharp saltiness Average [1, 8] | Top sharp saltiness Evaluation [1, 9] | Top sharp saltiness Evaluation [1, 10] | Top sharp saltiness Average [1, 11] | Bosting of last flavor Average [2, 9] | Bosting of last flavor Evaluation [2, 9] | Bosting of last flavor Evaluation [2, 10] | Bosting of last flavor Average [2, 11] | also measured
1 | cyclic (Ala-His) [Coriander ID 10] | 2.7 points | A (“A” when it was 2.6 or higher and 2.9 or lower) | B (“B” when it was 2.0 or higher and 2.5 or lower) | 2.3 points | 3.3 points | AA (“AA” when it was 3.0 or higher) | AA (“AA” when it was 3.0 or higher) | 3.7 points | 3.2 points | AA (“AA” when it was 3.0 or higher) | AA (“AA” when it was 3.0 or higher) | 3.3 points | – | – | – | – | – | – | – | – | –
2 | cyclic (Gly-Thr) [Coriander ID 60] | 3.3 points | AA (“AA” when it was 3.0 or higher) | B (“B” when it was 2.0 or higher and 2.5 or lower) | 2.0 points | 3.2 points | AA (“AA” when it was 3.0 or higher) | B (“B” when it was 2.0 or higher and 2.5 or lower) | 2.5 points | 3.2 points | AA (“AA” when it was 3.0 or higher) | A (“A” when it was 2.6 or higher and 2.9 or lower) | 2.7 points | – | – | – | – | – | – | – | – | –
3 | cyclic (Ala-Asp) [Coriander ID 58] | – | – | – | – | – | – | – | – | – | – | – | – | 3.0 points | AA (“AA” when it was 3.0 or higher) | AA (“AA” when it was 3.0 or higher) | 3.0 points | 3.2 points | AA (“AA” when it was 3.0 or higher) | AA (“AA” when it was 3.0 or higher) | 3.2 points | Middle fullness Average [3, 9]: 3.3 points; Middle fullness Evaluation [3, 9]: AA (“AA” when it was 3.0 or higher); Middle fullness Evaluation [3, 10]: AA (“AA” when it was 3.0 or higher); Middle fullness Average [3, 11]: 3.0 points
4 | cyclic (Gly-Phe) [Coriander ID 28] | – | – | – | – | – | – | – | – | – | – | – | – | 2.7 points | A (“A” when it was 2.6 or higher and 2.9 or lower) | B (“B” when it was 2.0 or higher and 2.5 or lower) | 2.3 points | 3.2 points | AA (“AA” when it was 3.0 or higher) | B (“B” when it was 2.0 or higher and 2.5 or lower) | 2.5 points | Middle fullness Average [3, 9]: 3.2 points; Middle fullness Evaluation [3, 9]: AA (“AA” when it was 3.0 or higher); Middle fullness Evaluation [3, 10]: B (“B” when it was 2.0 or higher and 2.5 or lower); Middle fullness Average [3, 11]: 2.5 points
5 | cyclic (Pro-Leu/Ile) [Coriander ID 39] | 1.5 points | C (“C” when it was 1.1 or higher and 1.9 or lower) | C (“C” when it was 1.1 or higher and 1.9 or lower) | 1.8 points | 2.2 points | B (“B” when it was 2.0 or higher and 2.5 or lower) | C (“C” when it was 1.1 or higher and 1.9 or lower) | 1.7 points | 1.8 points | C (“C” when it was 1.1 or higher and 1.9 or lower) | C (“C” when it was 1.1 or higher and 1.9 or lower) | 1.8 points | – | – | – | – | – | – | – | – | –
6 | cyclic (Val-Tyr) [Coriander ID 35] | – | – | – | – | – | – | – | – | – | – | – | – | 1.8 points | C (“C” when it was 1.1 or higher and 1.9 or lower) | B (“B” when it was 2.0 or higher and 2.5 or lower) | 2.3 points | 1.8 points | C (“C” when it was 1.1 or higher and 1.9 or lower) | B (“B” when it was 2.0 or higher and 2.5 or lower) | 2.3 points | Middle fullness Average [3, 9]: 2.2 points; Middle fullness Evaluation [3, 9]: B (“B” when it was 2.0 or higher and 2.5 or lower); Middle fullness Evaluation [3, 10]: B (“B” when it was 2.0 or higher and 2.5 or lower); Middle fullness Average [3, 11]: 2.2 points
7 | cyclic (Glu-Leu/Ile) [Coriander ID 47] | 2.3 points | B (“B” when it was 2.0 or higher and 2.5 or lower) | B (“B” when it was 2.0 or higher and 2.5 or lower) | 2.2 points | 3.0 points | AA (“AA” when it was 3.0 or higher) | A (“A” when it was 2.6 or higher and 2.9 or lower) | 2.7 points | 2.8 points | A (“A” when it was 2.6 or higher and 2.9 or lower) | B (“B” when it was 2.0 or higher and 2.5 or lower) | 2.3 points | – | – | – | – | – | – | – | – | –
8 | cyclic (Tyr-His) [Coriander ID 50] | 2.3 points | B (“B” when it was 2.0 or higher and 2.5 or lower) | AA (“AA” when it was 3.0 or higher) | 3.3 points | 2.8 points | A (“A” when it was 2.6 or higher and 2.9 or lower) | AA (“AA” when it was 3.0 or higher) | 3.0 points | 2.5 points | B (“B” when it was 2.0 or higher and 2.5 or lower) | AA (“AA” when it was 3.0 or higher) | 3.3 points | – | – | – | – | – | – | – | – | –
9 | cyclic (Leu/Ile-Leu/Ile) [Coriander ID 1] | – | – | – | – | – | – | – | – | – | – | – | – | 2.7 points | A (“A” when it was 2.6 or higher and 2.9 or lower) | C (“C” when it was 1.1 or higher and 1.9 or lower) | 1.7 points | 3.0 points | AA (“AA” when it was 3.0 or higher) | B (“B” when it was 2.0 or higher and 2.5 or lower) | 2.3 points | Middle fullness Average [3, 9]: 2.7 points; Middle fullness Evaluation [3, 9]: A (“A” when it was 2.6 or higher and 2.9 or lower); Middle fullness Evaluation [3, 10]: C (“C” when it was 1.1 or higher and 1.9 or lower); Middle fullness Average [3, 11]: 1.8 points
10 | cyclic (Gly-Gly) [Coriander ID 54] | 2.2 points | B (“B” when it was 2.0 or higher and 2.5 or lower) | A (“A” when it was 2.6 or higher and 2.9 or lower) | 2.8 points | 3.0 points | AA (“AA” when it was 3.0 or higher) | B (“B” when it was 2.0 or higher and 2.5 or lower) | 2.3 points | 2.5 points | B (“B” when it was 2.0 or higher and 2.5 or lower) | A (“A” when it was 2.6 or higher and 2.9 or lower) | 2.7 points | – | – | – | – | – | – | – | – | –
